Results from patent publication US20090215857A1 (Pfizer Products Inc., priority 2005, published 2009).
pKi: −log10 of the molar value. Structures can show the parent of a compound that is named as a salt.

Legend:
[1] = molecular target: T1, human norepinephrine transporter (Homo sapiens, UniProt P23975); test: hNET receptor binding ([125I]-RTI-55 radioligand); conditions: membranes of HEK-293 cells transfected with human norepinephrine transporter cDNA; 50 pM [125I]-RTI-55; IC50 converted by Cheng-Prusoff; read-out: NET Ki
T1 construct: expressed in transfected cells; host or cells: HEK-293
T1 sequence (P23975 whole entry): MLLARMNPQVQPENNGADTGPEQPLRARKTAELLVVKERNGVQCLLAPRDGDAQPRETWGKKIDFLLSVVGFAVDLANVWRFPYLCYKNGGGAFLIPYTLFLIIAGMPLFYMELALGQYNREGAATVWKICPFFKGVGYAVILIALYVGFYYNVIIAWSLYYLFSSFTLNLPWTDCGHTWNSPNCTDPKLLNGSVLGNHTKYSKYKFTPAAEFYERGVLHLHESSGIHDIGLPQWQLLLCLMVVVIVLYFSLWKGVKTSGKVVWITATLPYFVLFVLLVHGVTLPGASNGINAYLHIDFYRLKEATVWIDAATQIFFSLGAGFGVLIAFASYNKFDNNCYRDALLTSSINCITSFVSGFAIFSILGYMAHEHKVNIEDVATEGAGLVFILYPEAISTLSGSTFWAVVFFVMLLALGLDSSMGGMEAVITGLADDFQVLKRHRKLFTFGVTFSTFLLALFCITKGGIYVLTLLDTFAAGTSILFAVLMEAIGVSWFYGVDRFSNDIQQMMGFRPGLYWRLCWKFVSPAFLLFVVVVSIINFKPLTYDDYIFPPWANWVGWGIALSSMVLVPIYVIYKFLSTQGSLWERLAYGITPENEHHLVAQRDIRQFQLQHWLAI
Experimental: (§1) Cell pastes of HEK-293 cells transfected with a human norepinephrine transporter cDNA were prepared. The cell pastes were resuspended in 400 to 700 ml of Krebs-HEPES assay buffer (25 mM HEPES, 122 mM NaCl, 3 mM KCl, 1.2 mM MgSO4, 1.3 mM CaCl2, and 11 mM glucose, pH 7.4) with a Polytron homogenizer at setting 7 for 30 seconds. Aliquots of membranes (5 mg/ml protein) were stored in liquid nitrogen until used.
The binding assay was set up in Beckman deep-well polypropylene plates with a total volume of 250 μl containing: test compound (10^−5M to 10^−12M), cell membranes, and 50 pM [^125I]-RTI-55 (Perkin Elmer, NEX-272; specific activity 2200 Ci/mmol). The reaction was incubated by gentle agitation for 90 minutes at room temperature and was terminated by filtration through Whatman GF/C filter plates using a Brandel 96-well plate harvester. Scintillation fluid (100 μl) was added to each well, and bound [^125I]-RTI-55 was determined using a Wallac Trilux Beta Plate Counter. Test compounds were run in duplicate, and specific binding was defined as the difference between binding in the presence and absence of 10 μM desipramine.
Excel and GraphPad Prism software were used for data calculation and analysis. IC50 values were converted to K, values using the Cheng-Prusoff equation.

[2] = molecular target: T2, human serotonin transporter (Homo sapiens, UniProt P31645); test: hSERT receptor binding ([125I]-RTI-55 radioligand); conditions: membranes of HEK-293 cells transfected with human serotonin transporter cDNA; 50 pM [125I]-RTI-55; IC50 converted by Cheng-Prusoff; read-out: SERT Ki
T2 construct: expressed in transfected cells; host or cells: HEK-293
T2 sequence (P31645 whole entry): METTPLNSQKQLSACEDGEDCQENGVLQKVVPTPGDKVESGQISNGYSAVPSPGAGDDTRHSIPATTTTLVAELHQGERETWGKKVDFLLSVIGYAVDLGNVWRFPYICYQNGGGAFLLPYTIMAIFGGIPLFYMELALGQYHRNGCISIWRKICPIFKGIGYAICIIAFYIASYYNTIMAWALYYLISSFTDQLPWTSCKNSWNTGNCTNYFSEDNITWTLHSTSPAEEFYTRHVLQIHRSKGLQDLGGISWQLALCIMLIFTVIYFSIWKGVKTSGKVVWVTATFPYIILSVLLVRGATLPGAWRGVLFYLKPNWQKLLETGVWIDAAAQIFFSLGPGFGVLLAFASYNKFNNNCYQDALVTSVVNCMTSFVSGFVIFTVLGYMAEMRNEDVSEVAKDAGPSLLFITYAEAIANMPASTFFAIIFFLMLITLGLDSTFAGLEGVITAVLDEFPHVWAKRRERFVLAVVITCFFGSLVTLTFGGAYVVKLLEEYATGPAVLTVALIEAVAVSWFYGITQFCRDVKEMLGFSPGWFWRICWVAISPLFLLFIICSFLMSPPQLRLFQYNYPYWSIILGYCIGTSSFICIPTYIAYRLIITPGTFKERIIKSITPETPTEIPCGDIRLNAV
Experimental: as §1, with “serotonin” for “norepinephrine”, “Setting” for “setting”, “(˜2.5” for “(5”
Assays were set up in FlashPlates pre-coated with 0.1% PEI in a total volume of 250 μl containing: test compound (10^−5M to 10^−12M), cell membranes, and 50 pM [^125I]-RTI-55 (Perkin Elmer, NEX-272; specific activity 2200 Ci/mmol). The reaction was incubated and gently agitated for 90 minutes at room temperature, and terminated by removal of assay volume. Plates were covered, and bound [^125I]-RTI-55 was determined using a Wallac Trilux Beta Plate Counter. Test compounds were run in duplicate, and specific binding was defined as the difference between binding in the presence and absence of 10 μM citalopram.
Excel and GraphPad Prism software were used for data calculation and analysis. IC50 values were converted to Ki values using the Cheng-Prusoff equation.

Molecule	pKi [1]	pKi [2]
COc1ccc(-c2ccccc2CO[C@H]2CCNC2)cc1C [Example D-2, (S)-3-(4′-Methoxy-3′-methyl-biphenyl-2-ylmethoxy)-pyrrolidine]	8.07	6.58
Fc1ccccc1-c1ccccc1CO[C@H]1CCNC1 [Example D-3, (S)-3-(2′-Fluoro-biphenyl-2-ylmethoxy)-pyrrolidine]	7.83	6.52
Fc1cccc(-c2ccccc2CO[C@H]2CCNC2)c1 [Example D-6, (S)-3-(3′-Fluoro-biphenyl-2-ylmethoxy)-pyrrolidine]	7.73	7.74
N#Cc1cccc(-c2ccccc2CO[C@H]2CCNC2)c1 [Example D-30]	6.43	6.55
Fc1ccc(-c2ccccc2CO[C@@H]2CCNC2)c(F)c1 [Example A-20, (R)-3-(2′,4′-Difluoro-biphenyl-2-ylmethoxy)-pyrrolidine fumarate]	6.89	6.51
Fc1ccc(-c2c(F)cccc2CO[C@H]2CCNC2)c(F)c1 [Example A-34, (3S)-3-[(2′,4′,6-trifluorobiphenyl-2-yl)methoxy]pyrrolidine hydrochloride]	7.63	6.36
Fc1ccc(CO[C@H]2CCNC2)c(-c2ccccc2F)c1 [Example A-25, (S)-(5,2′-Difluoro-biphenyl-2-ylmethoxy)-pyrrolidine hydrochloride]	7.58	6.82
CC(C)Oc1ccccc1-c1ccccc1CO[C@H]1CCNC1 [Example A-19, (S)-3-(2′-Isopropoxy-biphenyl-2-ylmethoxy)-pyrrolidine fumarate]	6.95	6.12
Cc1cccc(-c2ccccc2CO[C@H]2CCNC2)c1C [Example D-35, (S)-3-(2′,3′-Dimethyl-biphenyl-2-ylmethoxy)-pyrrolidine]	6.23	7.22
N#Cc1ccccc1-c1ccccc1CO[C@H]1CCNC1 [Example D-52]	≤ 5.00	≤ 5.00
Fc1ccc(-c2ccccc2F)c(CO[C@H]2CCNC2)c1 [Example A-9, (S)-3-(4,2′-Difluoro-biphenyl-2-ylmethoxy)-pyrrolidine fumarate]	7.75	6.76
FC(F)(F)Oc1cccc(-c2ccccc2CO[C@H]2CCNC2)c1 [Example D-17, (S)-3-(3′-Trifluoromethoxy-biphenyl-2-ylmethoxy)-pyrrolidine]	7.06	7.51
c1ccc(-c2ccccc2CO[C@@H]2CCNC2)cc1 [Example A-14, (R)-3-(Biphenyl-2-ylmethoxy)-pyrrolidine hydrochloride]	7.17	6.69
Fc1cccc(-c2ncccc2CO[C@H]2CCNC2)c1F [Example B-2, (S)-2-(2,3-Difluoro-phenyl)-3-(pyrrolidin-3-yloxymethyl)-pyridine fumarate]	6.69	5.48
Clc1ccc(-c2ccccc2CO[C@H]2CCNC2)cc1Cl [Example D-4, (S)-3-(3′,4′-Dichloro-biphenyl-2-ylmethoxy)-pyrrolidine]	7.82	7.74
(S)-1-{3-[2-Pyrrolidin-3-yloxymethyl)-phenyl]-pyridin-2-yl}-piperazine [Example D-125]	≤ 5.00	5.16
Cc1cccc(-c2ccccc2CO[C@H]2CCNC2)c1C [Example D-33, (S)-3-(2′,3′-Dimethyl-biphenyl-2-ylmethoxy)-pyrrolidine]	6.28	7.54
Cc1cccc(-c2ccccc2CO[C@H]2CCNC2)c1 [Example D-16, (S)-3-(3′-Methyl-biphenyl-2-ylmethoxy)-pyrrolidine]	7.20	7.61
Fc1cccc(-c2cccc(F)c2CO[C@H]2CCNC2)c1F [Example A-33, (3S)-3-[(2′,3,3′-trifluorobiphenyl-2-yl)methoxy]pyrrolidine fumarate]	7.59	7.00
Fc1ccc(-c2ccccc2CO[C@@H]2CCNC2)cc1F [Example A-13, (R)-3-(3′,4′-Difluoro-biphenyl-2-ylmethoxy)-pyrrolidine fumarate]	7.18	7.27
Fc1ccc(F)c(-c2cccnc2CO[C@H]2CCNC2)c1 [Example C-1, (S)-3-(2,5-Difluoro-phenyl)-2-(pyrrolidin-3-yloxymethyl)-pyridine fumarate]	6.42	6.97
CC(=O)c1ccccc1-c1ccccc1CO[C@H]1CCNC1 [Example D-42, (S)-1-[2′-(Pyrrolidin-3-yloxymethyl)-biphenyl-2-yl]-ethanone]	5.60	≤ 5.00

Continued, values first:

pKi [1]	pKi [2]	Molecule
5.02	6.97	Cc1cc(C)n(-c2cccc(-c3ccc(F)cc3CO[C@H]3CCNC3)c2)n1 [Example D-112, (S)-1-[4′-Fluoro-2′-(pyrrolidin-3-yloxymethyl)-biphenyl-3-yl]-3,5-dimethyl-1H-pyrazole]
6.42	6.94	Cc1cc(C)cc(-c2ccc(F)cc2CO[C@H]2CCNC2)c1 [Example D-67, (S)-3-(4-Fluoro-3′,5′-dimethyl-biphenyl-2-ylmethoxy)-pyrrolidine]
≤ 5.00	5.25	Nc1ncccc1-c1ccccc1CO[C@H]1CCNC1 [Example D-121, (S)-3-[2-(Pyrrolidin-3-yloxymethyl)-phenyl]-pyridin-2-ylamine]
5.17	6.69	Fc1ccc(-c2ccc(C(F)(F)F)cc2)c(CO[C@H]2CCNC2)c1 [Example D-79, (S)-3-(4-Fluoro-4′-trifluoromethyl-biphenyl-2-ylmethoxy)-pyrrolidine]
≤ 5.00	6.05	COc1cccc(-c2ccccc2CO[C@H]2CCNC2)c1C(=O)N(C(C)C)C(C)C [Example D-60, (S)-3-Methoxy-2′-(pyrrolidin-3-yloxymethyl)-biphenyl-2-carboxylic acid diisopropylamide]
6.99	7.24	Fc1ccc(-c2cccc(Cl)c2)c(CO[C@H]2CCNC2)c1 [Example D-108, (S)-3-(3′-Chloro-4-fluoro-biphenyl-2-ylmethoxy)-pyrrolidine]
≤ 5.00	5.52	CCS(=O)(=O)c1ccc(-c2ccccc2CO[C@H]2CCNC2)cc1 [Example D-58, (S)-3-(4′-Ethanesulfonyl-biphenyl-2-ylmethoxy)-pyrrolidine]
≤ 5.00	7.24	Cc1cc(C)n(-c2cccc(-c3ccccc3CO[C@H]3CCNC3)c2)n1 [Example D-59, (S)-3,5-Dimethyl-1-[2′-(pyrrolidin-3-yloxymethyl)-biphenyl-3-yl]-1H-pyrazole]
6.84	7.22	COc1cccc(-c2ccc(F)cc2CO[C@H]2CCNC2)c1 [Example D-114, (S)-3-(4-Fluoro-3′-methoxy-biphenyl-2-ylmethoxy)-pyrrolidine]
6.48	6.91	Fc1ccc(-c2cccc(OC(F)(F)F)c2)c(CO[C@H]2CCNC2)c1 [Example D-95, (S)-3-(4-Fluoro-3′-trifluoromethoxy-biphenyl-2-ylmethoxy)-pyrrolidine]
7.37	6.18	Oc1ccc(-c2ccc(F)cc2CO[C@H]2CCNC2)cc1 [Example D-99, (S)-4′-Fluoro-2′-(pyrrolidine-3-yloxymethyl)-biphenyl-4-ol]
6.92	6.43	Cc1cc(F)ccc1-c1ccc(F)cc1CO[C@H]1CCNC1 [Example D-106, (S)-3-(4,4′-Difluoro-2′-methyl-biphenyl-2-ylmethoxy)-pyrrolidine]
6.56	7.12	Fc1cc(F)cc(-c2ccc(F)cc2CO[C@H]2CCNC2)c1 [Example D-86, (S)-(4,3′,5′-Trifluoro-biphenyl-2-ylmethoxy)-pyrrolidine]
7.36	6.84	Fc1ccc(-c2ccc(F)cc2CO[C@H]2CCNC2)cc1 [Example D-74, (S)-3-(4,4′-Difluoro-biphenyl-2-ylmethoxy)-pyrrolidine]
5.51	6.91	OCc1cccc(-c2ccc(F)cc2CO[C@H]2CCNC2)c1 [Example D-87, (S)-[4′-Fluoro-2′-(pyrrolidin-3-yloxymethyl)-biphenyl-3-yl]-methanol]
